Assay results as given in patent publication US20050032873A1, “3-Amino chroman and 2-amino tetralin derivatives” (Wyeth, priority 2003, published 2005).
Read-outs that look alike come from different tables or passages of the source.

Key:
[1] = target: T1, cloned human 5-HT1A receptors (Homo sapiens, UniProt P08908); experiment: 35S-GTPγS binding assay, 5-HT1A function; format: biochemical; settings: for EC50: agonist potency; for IC50: antagonist potency, reversal of 8-OH-DPAT, read-out: 5-HT1A Function GTPγS IC50
T1 construct: expressed in transfected cells
T1 sequence (P08908 1-422): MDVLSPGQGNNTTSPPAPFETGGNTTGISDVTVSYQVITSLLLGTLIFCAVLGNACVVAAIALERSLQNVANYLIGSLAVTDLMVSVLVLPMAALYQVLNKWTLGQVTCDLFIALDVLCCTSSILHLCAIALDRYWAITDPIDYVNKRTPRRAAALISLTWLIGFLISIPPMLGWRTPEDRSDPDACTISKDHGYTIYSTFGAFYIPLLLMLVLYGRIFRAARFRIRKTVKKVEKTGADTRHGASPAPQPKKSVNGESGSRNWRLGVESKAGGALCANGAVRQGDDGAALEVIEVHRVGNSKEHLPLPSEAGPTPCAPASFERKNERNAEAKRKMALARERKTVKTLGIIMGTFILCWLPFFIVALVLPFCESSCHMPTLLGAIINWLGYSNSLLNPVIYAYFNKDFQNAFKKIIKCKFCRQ
Description: The agonist or antagonist activity at 5-HT1A receptors was established by using two different assays. […] Agonists produce an increase in binding whereas antagonists produce no increase but rather reverse the effects of the standard agonist 8-OH-DPAT. The test compound's maximum stimulatory effect is represented as the Emax, while its potency is defined by the EC50. The test compound's maximum inhibitory effect is represented as the Imax, while its potency is defined by the IC50. The second assay measured cAMP accumulation upon binding of the ligand to the 5-HT1A receptor. […] The test compound's maximum stimulatory or inhibitory effect is represented as the Emax while its potency is defined by either IC50 for an antagonist or EC50 for an agonist. [^3H]-8-OH-DPAT was used to determine maximum agonist or antagonist response in both functional assays.

serotonin transporter = target: T2, serotonin transporter (Rattus norvegicus, UniProt P31652); experiment: 5-HT transporter affinity: displacement of 3H-paroxetine from male rat cortical membranes; format: binding; settings: displacement of 3H-paroxetine; male rat cortical membranes; read-out: 5-HT Transporter Affinity Ki
T2 construct: displace ^3H-paroxetine from male rat cortical membranes; from tissue; host or cells: male rat cortical membranes

5-HT1A receptor [2] = target: T3, 5-HT1A receptor (Homo sapiens, UniProt P08908); experiment: 5-HT1A receptor affinity: displacement of [3H] 8-OH-DPAT; format: binding; design: expressed in transfected cells; settings: displacement of [3H] 8-OH-DPAT; CHO cells stably transfected with human 5-HT1A receptors; read-out: 5-HT1A Receptor Affinity Ki
T3 sequence (P08908 1-422): T1 sequence (P08908 1-422)

5-HT1A receptor [3] = target: T3, 5-HT1A receptor; experiment: cAMP accumulation assay, 5-HT1A function; format: cell-based; settings: for EC50: cells marked EC50 (agonist); for Emax: in brackets after EC50 or IC50, read-out: 5-HT1A Function cAMP (Emax); for IC50: cells marked IC50 (antagonist), read-out: 5-HT1A Function cAMP IC50
[4] = maximum stimulatory effect, in brackets after EC50, read-out: 5-HT1A Function GTPγS (Emax)
[5] = maximum inhibitory effect, in brackets after IC50, read-out: 5-HT1A Function GTPγS (Imax)

T2 sequence (P31652 whole entry): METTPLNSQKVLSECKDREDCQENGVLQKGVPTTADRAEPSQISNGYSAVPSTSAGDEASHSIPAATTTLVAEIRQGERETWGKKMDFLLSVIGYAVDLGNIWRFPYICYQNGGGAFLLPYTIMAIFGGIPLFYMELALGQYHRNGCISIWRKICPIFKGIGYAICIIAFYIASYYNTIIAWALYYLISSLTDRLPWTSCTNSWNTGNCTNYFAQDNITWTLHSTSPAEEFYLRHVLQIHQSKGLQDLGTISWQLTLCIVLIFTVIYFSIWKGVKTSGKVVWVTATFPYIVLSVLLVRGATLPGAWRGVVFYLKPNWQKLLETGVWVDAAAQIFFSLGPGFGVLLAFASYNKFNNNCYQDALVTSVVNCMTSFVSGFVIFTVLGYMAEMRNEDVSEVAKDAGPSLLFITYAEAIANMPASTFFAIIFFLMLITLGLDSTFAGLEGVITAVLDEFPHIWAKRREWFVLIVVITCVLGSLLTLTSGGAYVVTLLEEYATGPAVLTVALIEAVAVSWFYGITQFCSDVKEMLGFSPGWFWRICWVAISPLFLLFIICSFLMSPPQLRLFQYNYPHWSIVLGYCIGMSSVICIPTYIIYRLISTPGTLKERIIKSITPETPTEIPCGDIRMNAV

EC50 [1] [nM] | Emax [1, 4] [%] | Ki (serotonin transporter) [nM] | Ki (5-HT1A receptor [2]) [nM] | EC50 (5-HT1A receptor [3]) [nM] | Emax (5-HT1A receptor [3]) [%] | IC50 [1] [nM] | Emax [1, 5] [%] | Compound | IC50 (5-HT1A receptor [3]) [nM]
28.1 | 98.5 | 311 | 0.38 | 9.51 | 90.5 |  |  | CCN(CCCc1coc2ccccc12)C1COc2cccc(OC)c2C1 (stereo not drawn) [Compound 21, N-[3-(1-benzofuran-3-yl)propyl]-N-ethyl-5-methoxychroman-3-amine] | 
224 | 82 | 35.7 | 4.77 | 31 | 100 | 1180 | 31 | CCN(CCCCc1coc2ccccc12)C1COc2cccc(OC)c2C1 (stereo not drawn) [Compound 22, N-[4-(1-benzofuran-3-yl)butyl]-N-ethyl-N-(5-methoxy-3,4-dihydro-2H-chromen-3-yl)amine] | 
94.6 | 83 | 12.6 | 3.62 | 27.7 | 94 |  |  | CCCN(CCCCc1c[nH]c2ccc(F)cc12)C1COc2cccc(OC)c2C1 (stereo not drawn) [Compound 30, N-[4-(5-fluoro-1H-indol-3-yl)butyl]-5-methoxy-N-propylchroman-3-amine] | 
123 | 100 | 1.1 | 2.78 | 85.4 | 95 |  |  | CCN(CCCCc1c[nH]c2ccc(F)cc12)C1COc2cccc(OC)c2C1 (stereo not drawn) [Compound 32, N-ethyl-N-[4-(5-fluoro-1H-indol-3-yl)butyl]-5-methoxychroman-3-amine] | 
25.8 | 90 | 29 | 0.15 | 8.84 | 97.5 |  |  | COc1cccc2c1CC(N(CCCc1cn(C)c3ccc(F)cc13)CC1CC1)CO2 (stereo not drawn) [Compound 38, N-(cyclopropylmethyl)-N-[3-(5-fluoro-1-methyl-1H-indol-3-yl)propyl]-N-(5-methoxy-3,4-dihydro-2H-chromen-3-yl)amine] | 
5840 | 100 | 69 | 36.2 | 108 | 70.5 |  |  | COc1cccc2c1CC(N(CCCc1c[nH]c3ccc(F)cc13)C1CCCC1)CO2 (stereo not drawn) [Compound 39, N-cyclopentyl-N-[3-(5-fluoro-1H-indol-3-yl)propyl]-N-(5-methoxy-3,4-dihydro-2H-chromen-3-yl)amine] | 
 |  | 3.8 | 80.8 |  | 0 | 3770 | 46 | COc1cccc2c1CC(N(CCCc1c[nH]c3ccc(F)cc13)C(C)C)CO2 (stereo not drawn) [Compound 40, N-[3-(5-fluoro-1H-indol-3-yl)propyl]-N-isopropyl-N-(5-methoxy-3,4-dihydro-2H-chromen-3-yl)amine] | 
3460 | 84 | 148 | 57.3 | 162 | 78.5 |  |  | COc1cccc2c1CC(N(CCCc1c[nH]c3ccc(F)cc13)C1CC1)CO2 (stereo not drawn) [Compound 41, N-cyclopropyl-N-[3-(5-fluoro-1H-indol-3-yl)propyl]-N-(5-methoxy-3,4-dihydro-2H-chromen-3-yl)amine] | 
763 | 84 | 54 | 50.4 | 154 | 72.5 |  |  | COc1cccc2c1CC(N(CCCc1c[nH]c3ccc(F)cc13)CC1CCC1)CO2 (stereo not drawn) [Compound 42, N-(cyclobutylmethyl)-N-[3-(5-fluoro-1H-indol-3-yl)propyl]-N-(5-methoxy-3,4-dihydro-2H-chromen-3-yl)amine] | 
51.3 | 100 | 40.9 | 1.02 | 10.8 | 91.5 |  |  | COc1cccc2c1CC(N(CCCc1c[nH]c3ccccc13)CC1CC1)CO2 (stereo not drawn) [Compound 43, N-(cyclopropylmethyl)-N-[3-(1H-indol-3-yl)propyl]-N-(5-methoxy-3,4-dihydro-2H-chromen-3-yl)amine] | 
 |  | 47.2 | 21.4 | 70 | 80.5 | 242 | 59 | COc1cccc2c1CC(N(CCCc1c[nH]c3ccccc13)C1CCC1)CO2 (stereo not drawn) [Compound 44, N-cyclobutyl-N-[3-(1H-indol-3-yl)propyl]-N-(5-methoxy-3,4-dihydro-2H-chromen-3-yl)amine] | 
56 | 72 | 5.25 | 2.16 | 77.3 | 89.5 |  |  | COc1cccc2c1CC(N(CCCc1c[nH]c3ccc(C#N)cc13)CC1CC1)CO2 (stereo not drawn) [Compound 45, 3-{3-[(cyclopropylmethyl)(5-methoxy-3,4-dihydro-2H-chromen-3-yl)amino]propyl}-1H-indole-5-carbonitrile] | 
107 | 36 | 7.6 | 14.6 |  | 0 | 218 | 81 | COc1cccc2c1CC(N(CCCc1c[nH]c3ccc(C#N)cc13)C1CCC1)CO2 (stereo not drawn) [Compound 46, 3-{3-[cyclobutyl(5-methoxy-3,4-dihydro-2H-chromen-3-yl)amino]propyl}-1H-indole-5-carbonitrile] | 899
10.4 | 100 | 2.16 | 4.12 | 3.5 | 91.5 |  |  | CCCN(CCCc1c[nH]c2ccc(F)cc12)C1CCc2cccc(OC)c2C1 (stereo not drawn) [Compound 47, N-[3-(5-fluoro-1H-indol-3-yl)propyl]-N-(8-methoxy-1,2,3,4-tetrahydronaphthalen-2-yl)-N-propylamine] | 

Compound | EC50 [1] [nM] | Emax [1, 4] [%] | Ki (serotonin transporter) [nM] | Ki (5-HT1A receptor [2]) [nM] | EC50 (5-HT1A receptor [3]) [nM] | Emax (5-HT1A receptor [3]) [%] | IC50 [1] [nM] | Emax [1, 5] [%] | IC50 (5-HT1A receptor [3]) [nM]
CCCN(CCCc1c[nH]c2ccc(F)cc12)C1COc2cccc(OC)c2C1 (stereo not drawn) [Compound 23, [3-(5-fluoro-1H-indol-3-yl)propyl]-N-(5-methoxy-chroman-3-yl)propylamine] | 99.5 | 100 | 9 | 15.9 | 39.3 | 80.5 |  |  | 
CCCN(CCCc1c[nH]c2ccc(F)cc12)[C@@H]1COc2c(F)ccc(OC)c2C1 [Compound 27, (3S)-8-fluoro-N-[3-(5-fluoro-1H-indol-3-yl)propyl]-5-methoxy-N-propylchroman-3-amine] | 116 | 97 | 13.5 | 12.6 | 16.4 | 88.5 |  |  | 
CCCN(CCCc1c[nH]c2ccc(F)cc12)[C@H]1COc2c(F)ccc(OC)c2C1 [Compound 28, (3R)-8-fluoro-N-[3-(5-fluoro-1H-indol-3-yl)propyl]-5-methoxy-N-propylchroman-3-amine] | 166 | 88 | 17.5 | 11 | 36.5 | 86 |  |  | 
CCCN(CCc1c[nH]c2ccc(F)cc12)C1COc2cccc(OC)c2C1 (stereo not drawn) [Compound 29, N-[2-(5-fluoro-1H-indol-3-yl)ethyl]-5-methoxy-N-propylchroman-3-amine] | 205 | 70 | 27 | 7.32 | 77.1 | 99 |  |  | 
CCN(CCCc1c[nH]c2ccc(F)cc12)C1COc2cccc(OC)c2C1 (stereo not drawn) [Compound 31, N-ethyl-N-[3-(5-fluoro-1H-indol-3-yl)propyl]-5-methoxychroman-3-amine] | 53.5 | 99 | 2.2 | 2.33 | 26.3 | 96 |  |  | 
COc1cccc2c1CC(N(C)CCCc1c[nH]c3ccc(F)cc13)CO2 (stereo not drawn) [Compound 33, N-[3-(5-fluoro-1H-indol-3-yl)propyl]-5-methoxy-N-methylchroman-3-amine] | 3.62 | 69 | 6.8 | 40 | 95.2 | 91 |  |  | 
COc1cccc2c1CC(N(CCCc1c[nH]c3ccc(F)cc13)C1CCC1)CO2 (stereo not drawn) [Compound 34, N-cyclobutyl-N-[3-(5-fluoro-1H-indol-3-yl)propyl]-5-methoxychroman-3-amine] |  |  | 13 | 15.6 | 61.9 | 37 | 2130 | 76 | 
COc1cccc2c1C[C@@H](N(CCCc1c[nH]c3ccc(F)cc13)C1CCC1)CO2 [Compound 35, (3R)-N-cyclobutyl-N-[3-(5-fluoro-1H-indol-3-yl)propyl]-5-methoxy-3,4-dihydro-2H-chromen-3-amine] |  |  | 41 | 2.14 |  | 0 | 489 | 80 | 23.4
COc1cccc2c1CC(N(CCCc1c[nH]c3ccc(F)cc13)CC1CC1)CO2 (stereo not drawn) [Compound 37, N-(cyclopropylmethyl)-N-[3-(5-fluoro-1H-indol-3-yl)propyl]-N-(5-methoxy-3,4-dihydro-2H-chromen-3-yl)amine] | 146 | 88 | 4.3 | 1.68 | 14.1 | 91 |  |  | 
